# In patent US20130204033A1, “ANTIPROLIFERATIVE COMPOUNDS, CONJUGATES THEREOF, METHODS THEREFOR, AND USES THEREOF” (Medarex, Inc., priority 2009, published 2013):
# pEC50: −log10 of the molar value. Where two headings read alike, the source gives them in different places.
# Assays:
# Assay type in all cases: cell-based, human
# SK-BR3 = assay: 3H thymidine proliferation assay, SK-BR3; details: 3H thymidine method, 72 h incubation
# Experimental: (§1) This example generally describes the procedures used to assay the antiproliferative activity of compounds of this invention or their conjugates. Human tumor cell lines were obtained from the American Type Culture Collection (ATCC), P.O. Box 1549, Manassas, Va. 20108, USA, and cultured according to instruction from the ATCC. Cells were seeded at 1.0×10^3 or 1.0×10^4 cells/well in 96-well plates for 3 h for ATP assays or ^3H thymidine assays, respectively. 1:3 serial dilutions of free (unconjugated) compounds or their conjugates were added to the wells. Plates were allowed to incubate for 24 to 72 h. The ^3H thymidine plates were pulsed with 1.0 μCi of ^3H-thymidine per well for the last 24 hours of the total incubation period, harvested, and read on a Top Count Scintillation Counter (Packard Instruments, Meriden, Conn.). ATP levels in the ATP plates were measured using the […]-GLO® Luminescent Cell Viability kit following the manufacturer's manual and read on a GLOMAX® 20/20 luminometer (both from Promega, Madison, Wis., USA). The EC50 values—the concentration at which an agent inhibits or reduces cell proliferation by 50% —were determined using PRISM™ software, version 4.0 (GraphPad Software, La Jolla, Calif., USA).
# (§2) Using the ^3H thymidine or the ATP luminescence assay, or both, the activities of compounds of this invention were assayed against the following cancer cell lines: HCT-15 (colorectal cancer, multi-drug resistant (MDR)); Hep3B (liver cancer); LNCaP (prostate cancer, androgen receptor positive (AR^+)); MDA-MB-231 (breast cancer, estrogen receptor, progesterone receptor, and Her2 negative (triple negative)); A2058 (melanoma); U-87 MG (glioblastoma); NCI-H460 (NSCLC); A549 (NSCLC); HPAC (pancreatic cancer, primary); PC3 (prostate cancer, AR); BT474 (breast cancer, Her2 highly positive (Her2hi)); SKOV3 (ovarian cancer, Her2hi); 786-O (renal cancer); UO-31 (renal cancer, MDR); NCI-H740 (SCLC); DMS53 (SCLC); SK-BR3 (breast cancer, Her2hi); ZR-75 (breast cancer, estrogen receptor positive); OVCAR3 (ovarian cancer); HL-60 (APL); OVCAR8/Adr (ovarian cancer, MDR); CEM-Cl (ALL); Nomo-1 (AML); RPMI-8226 (MM)); Raji (lymphoma); SW-480 (colorectal cancer, metastatic); SW-620 (colorectal cancer); and H226 (lung cancer). (Not all compounds were assayed against all cell lines.)
# (§3) Table 2 provides the data for proliferation assays using the ^3H thymidine method, with an incubation period of 72 h.
# DMS53 = assay: ATP luminescence proliferation assay, DMS53
# Experimental: as §1, §2
# (§4) Table 3 provides the data for the ATP luminescence proliferation assays, with an incubation period of 48, 72, or 96 h, as noted.
# NCI-H460 = assay: ATP luminescence proliferation assay, NCI-H460
# Experimental: as §1, §2, §4
# HPAC = assay: 3H thymidine proliferation assay, HPAC
# Experimental: as §1, §2, §3
# SW-480 = assay: ATP luminescence proliferation assay, SW-480
# Experimental: as §1, §2, §4
# 786-O = assay: ATP luminescence proliferation assay, 786-O
# Experimental: as §1, §2
# FIGS. 12a and 12b show illustrative plots for ATP luminescence proliferation assays for a second set of compounds of this invention, against HL-60 and 786-O cells, respectively, with an incubation period of 72 h. FIGS. 12c and 12d show the plots for ^3H thymidine proliferation assays for the same set of compounds, again against HL-60 and 786-O cells, respectively, with a 72 h incubation period. In each instance, doxorubicin was used as a comparative compound.
# as §4
# SKOV3 [1] = assay: 3H thymidine proliferation assay, SKOV3
# Experimental: as §1, §2, §3
# Raji = assay: ATP luminescence proliferation assay, Raji
# Experimental: as §1, §2, §4
# PC3 = assay: ATP luminescence proliferation assay, PC3
# Experimental: as §1, §2, §4
# Nomo-1 = assay: ATP luminescence proliferation assay, Nomo-1
# Experimental: as §1, §2, §4
# U-87 MG [2] = assay: ATP luminescence proliferation assay, U-87 MG
# Experimental: as §1, §2, §4
# SKOV3 [3] = assay: ATP luminescence proliferation assay, SKOV3
# Experimental: as §1, §2, §4
# RPMI-8226 = assay: 3H thymidine proliferation assay, RPMI-8226
# Experimental: as §1, §2, §3
# U-87 MG [4] = assay: 3H thymidine proliferation assay, U-87 MG
# Experimental: as §1, §2, §3
# LNCaP = assay: 3H thymidine proliferation assay, LNCaP
# Experimental: as §1, §2, §3
# CEM-C1 = assay: 3H thymidine proliferation assay, CEM-C1
# Experimental: as §1, §2, §3
# ZR-75 = assay: 3H thymidine proliferation assay, ZR-75
# Experimental: as §1, §2, §3
# [5] = Homo sapiens, DMS-53, 48 h, read-out: EC50 DMS53 (48 h), ATP luminescence, DMS53, 48 h incubation
# [6] = Homo sapiens, HPAC, read-out: EC50, HPAC, 3H thymidine method, 72 h incubation
# [7] = Homo sapiens, SW480, 96 h, read-out: EC50 SW480 (96 h), ATP luminescence, SW480, 96 h incubation
# [8] = Homo sapiens, 786-0, 72 h, read-out: EC50 786-O (72 h), ATP luminescence, 786-O, 72 h incubation
# [9] = Homo sapiens, SK-OV-3, read-out: EC50, SKOV3, 3H thymidine method, 72 h incubation
# [10] = Homo sapiens, 72 h, read-out: EC50 Raji (72 h), ATP luminescence, Raji, 72 h incubation
# [11] = Homo sapiens, PC-3, 48 h, read-out: EC50 PC3 (48 h), ATP luminescence, PC3, 48 h incubation
# [12] = Homo sapiens, 72 h, read-out: EC50 U-87 MG (72 h), ATP luminescence, U-87 MG, 72 h incubation
# [13] = Homo sapiens, RPMI-8226, read-out: EC50, RPMI-8226, 3H thymidine method, 72 h incubation
# [14] = Homo sapiens, U-87 MG, read-out: EC50, U-87 MG, 3H thymidine method, 72 h incubation
# [15] = Homo sapiens, LNCaP, read-out: EC50, LNCaP, 3H thymidine method, 72 h incubation
# [16] = Homo sapiens, CEM/C1, read-out: EC50, CEM-C1, 3H thymidine method, 72 h incubation
# [17] = ATP luminescence, DMS53, 48 h incubation, read-out: EC50 DMS53 (48 h)
# [18] = ATP luminescence, NCI-H460, 48 h incubation, read-out: EC50 NCI-H460 (48 h)
# [19] = 3H thymidine method, 72 h incubation, read-out: EC50, HPAC
# [20] = ATP luminescence, SW480, 96 h incubation, read-out: EC50 SW480 (96 h)
# [21] = ATP luminescence, 786-O, 72 h incubation, read-out: EC50 786-O (72 h)
# [22] = 3H thymidine method, 72 h incubation, read-out: EC50, SKOV3
# [23] = ATP luminescence, 72 h incubation, read-out: EC50 Raji (72 h)
# [24] = ATP luminescence, PC3, 48 h incubation, read-out: EC50 PC3 (48 h)
# [25] = ATP luminescence, Nomo-1, 72 h incubation, read-out: EC50 Nomo-1 (72 h)
# [26] = ATP luminescence, 72 h incubation, read-out: EC50 U-87 MG (72 h)
# [27] = ATP luminescence, SKOV3, 48 h incubation, read-out: EC50 SKOV3 (48 h)
# [28] = 3H thymidine method, 72 h incubation, read-out: EC50, RPMI-8226
# [29] = 3H thymidine method, 72 h incubation, read-out: EC50, U-87 MG
# [30] = 3H thymidine method, 72 h incubation, read-out: EC50, ZR-75
# [31] = 3H thymidine method, 72 h incubation, read-out: EC50, LNCaP
# [32] = 3H thymidine method, 72 h incubation, read-out: EC50, CEM-C1
SMILES,"pEC50 (SK-BR3; Homo sapiens, SK-BR-3)",pEC50 (DMS53; [5]),pEC50 (HPAC; [6]),pEC50 (SW-480; [7]),pEC50 (786-O; [8]),pEC50 (SKOV3 [1]; [9]),pEC50 (Raji; [10]),pEC50 (PC3; [11]),pEC50 (U-87 MG [2]; [12]),pEC50 (RPMI-8226; [13]),pEC50 (U-87 MG [4]; [14]),pEC50 (LNCaP; [15]),pEC50 (CEM-C1; [16]),pEC50 (SK-BR3),pEC50 (DMS53; [17]),pEC50 (NCI-H460; [18]),pEC50 (HPAC; [19]),pEC50 (SW-480; [20]),pEC50 (786-O; [21]),pEC50 (SKOV3 [1]; [22]),further results
CC[C@H](C)[C@H](NC(=O)[C@H]1CCCCN1C)C(=O)N(C)[C@H](C[C@@H](OC)c1nc(C(=O)NC(Cc2ccccc2)C[C@H](C)C(=O)O)cs1)C(C)C (stereo partly shown) [Compound 15],7.77,7.49,8.52,8.25,8.03,8.59,8.60,< 7.00,8.07,8.48,9.38,7.57,9.03,–,–,–,–,–,–,–,"pEC50 (NCI-H460; Homo sapiens, NCI-H460, 48 h, read-out: EC50 NCI-H460 (48 h), ATP luminescence, NCI-H460, 48 h incubation): 8.17; pEC50 (Nomo-1; Homo sapiens, NOMO-1, 72 h, read-out: EC50 Nomo-1 (72 h), ATP luminescence, Nomo-1, 72 h incubation): 8.57; pEC50 (SKOV3 [3]; Homo sapiens, SK-OV-3, 48 h, read-out: EC50 SKOV3 (48 h), ATP luminescence, SKOV3, 48 h incubation): 8.38"
CC[C@H](C)[C@H](NC(=O)[C@H]1CCCCN1C)C(=O)N(C)[C@H](C[C@@H](OC(C)=O)c1nc(C(=O)N[C@@H](Cc2ccc(N)cc2)C(=O)O)cs1)C(C)C [Compound 56],–,–,–,–,–,–,–,–,–,–,–,–,–,< 7.00,< 7.00,< 7.00,< 7.00,< 7.00,< 7.00,< 7.00,pEC50 (Raji; [23]): 7.62; pEC50 (PC3; [24]): < 7.00; pEC50 (Nomo-1; [25]): < 7.00; pEC50 (U-87 MG [2]; [26]): < 7.00; pEC50 (SKOV3 [3]; [27]): < 7.00; pEC50 (RPMI-8226; [28]): < 7.00; pEC50 (U-87 MG [4]; [29]): < 7.00; pEC50 (ZR-75; [30]): < 7.00; pEC50 (LNCaP; [31]): < 7.00; pEC50 (CEM-C1; [32]): < 7.00
CC[C@H](C)[C@H](NC(=O)[C@H]1CCCCN1C)C(=O)N(C)[C@H](C[C@@H](OC)c1nc(C(=O)N[C@@H](Cc2ccccc2)C(=O)OC)cs1)C(C)C [Compound 16],–,–,–,–,–,–,–,–,–,–,–,–,–,< 7.00,7.30,7.16,< 7.00,7.32,7.44,7.36,pEC50 (Raji; [23]): 8.52; pEC50 (PC3; [24]): < 7.00; pEC50 (Nomo-1; [25]): 8.51; pEC50 (U-87 MG [2]; [26]): < 7.00; pEC50 (SKOV3 [3]; [27]): 7.74; pEC50 (RPMI-8226; [28]): 7.66; pEC50 (U-87 MG [4]; [29]): < 7.00; pEC50 (ZR-75; [30]): < 7.00; pEC50 (LNCaP; [31]): < 7.00; pEC50 (CEM-C1; [32]): 7.96
CC[C@H](C)[C@H](NC(=O)[C@H]1CCCCN1C)C(=O)N(COC(=O)CC(C)C)[C@H](C[C@@H](OC(C)=O)c1nc(C(=O)N[C@@H](Cc2ccc(N)cc2)CC(C)C(=O)O)cs1)C(C)C (stereo partly shown) [Compound 54],8.96,8.10,9.08,8.80,8.59,9.47,8.92,8.51,8.80,9.44,9.96,7.80,9.42,–,–,–,–,–,–,–,"pEC50 (NCI-H460; Homo sapiens, NCI-H460, 72 h, read-out: EC50 NCI-H460 (72 h), ATP luminescence, NCI-H460, 72 h incubation): 8.80; pEC50 (Nomo-1; Homo sapiens, NOMO-1, 48 h, read-out: EC50 Nomo-1 (48 h), ATP luminescence, Nomo-1, 48 h incubation): 8.51; pEC50 (SKOV3 [3]; Homo sapiens, SK-OV-3, 72 h, read-out: EC50 SKOV3 (72 h), ATP luminescence, SKOV3, 72 h incubation): 8.89; pEC50 (ZR-75; Homo sapiens, ZR75, read-out: EC50, ZR-75, 3H thymidine method, 72 h incubation): 8.66"
